# Laboratory results from PubChem BioAssay (NCI).
#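 A five-concentration, 48-hour dose response in 96-well plates underlies each endpoint, interpolated linearly between surrounding concentrations. TGI marks complete inhibition of growth.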
# Experiments:
# Test in all cases: DTP human tumour cell line panel, 48 h
# HS 578T breast = test system: HS 578T breast
# NCI/ADR-RES ovarian = test system: NCI/ADR-RES ovarian
# SNB-75 CNS = test system: SNB-75 CNS
# NCI-H522 lung = test system: NCI-H522 lung
# IGROV1 ovarian = test system: IGROV1 ovarian
# CAKI-1 renal = test system: CAKI-1 renal
# A549 NSCLC = test system: A549 NSCLC
# HOP-92 NSCLC = test system: HOP-92 NSCLC
# K-562 leukemia = test system: K-562 leukemia
# DU-145 prostate = test system: DU-145 prostate
# OVCAR-8 ovarian = test system: OVCAR-8 ovarian
# HT29 colon = test system: HT29 colon
# MCF7 breast = test system: MCF7 breast
# 786-0 renal = test system: 786-0 renal
# MALME-3M melanoma = test system: MALME-3M melanoma
# U251 CNS = test system: U251 CNS
# OVCAR-5 ovarian = test system: OVCAR-5 ovarian
# MOLT-4 leukemia = test system: MOLT-4 leukemia
# MDA-N = test system: MDA-N
# SK-MEL-28 melanoma = test system: SK-MEL-28 melanoma
# PC-3 prostate = test system: PC-3 prostate
# OVCAR-3 ovarian = test system: OVCAR-3 ovarian
# ACHN renal = test system: ACHN renal
# EKVX NSCLC = test system: EKVX NSCLC
# SR leukemia = test system: SR leukemia
# CCRF-CEM leukemia = test system: CCRF-CEM leukemia
# COLO 205 colon = test system: COLO 205 colon
# RXF 393 renal = test system: RXF 393 renal
# NCI-H23 lung = test system: NCI-H23 lung
# SW-620 colon = test system: SW-620 colon
# BT-549 breast = test system: BT-549 breast
# RPMI-8226 leukemia = test system: RPMI-8226 leukemia
# SNB-19 CNS = test system: SNB-19 CNS
# UACC-62 melanoma = test system: UACC-62 melanoma
# SF-539 CNS = test system: SF-539 CNS
# M14 melanoma = test system: M14 melanoma
# HL-60(TB) leukemia = test system: HL-60(TB) leukemia
# HCT-116 colon = test system: HCT-116 colon
# NCI-H226 lung = test system: NCI-H226 lung
# HOP-62 NSCLC = test system: HOP-62 NSCLC
# SK-OV-3 ovarian = test system: SK-OV-3 ovarian
# SF-268 CNS = test system: SF-268 CNS
# SF-295 CNS = test system: SF-295 CNS
# T-47D breast = test system: T-47D breast
# UO-31 renal = test system: UO-31 renal
# OVCAR-4 ovarian = test system: OVCAR-4 ovarian
# MDA-MB-231 breast = test system: MDA-MB-231 breast
# A498 renal = test system: A498 renal
# UACC-257 melanoma = test system: UACC-257 melanoma
# NCI-H460 lung = test system: NCI-H460 lung
# SN12C renal = test system: SN12C renal
# SK-MEL-5 melanoma = test system: SK-MEL-5 melanoma
# HCT-15 colon = test system: HCT-15 colon
# TK-10 renal = test system: TK-10 renal
# SK-MEL-2 melanoma = test system: SK-MEL-2 melanoma
# MDA-MB-435 = test system: MDA-MB-435
# LOX IMVI melanoma = test system: LOX IMVI melanoma
# HCC-2998 colon = test system: HCC-2998 colon
# KM12 colon = test system: KM12 colon
smiles,measurement,setting,value
CCOC(=O)c1c(CN2CCCC2)n(-c2ccccc2)c2cc(Br)c(OC)cc12,TGI,HS 578T breast,> 100 µM
same,TGI,NCI/ADR-RES ovarian,80.8 µM
same,TGI,SNB-75 CNS,62.5 µM
same,TGI,NCI-H522 lung,31.6 µM
same,TGI,IGROV1 ovarian,45.6 µM
same,TGI,CAKI-1 renal,> 100 µM
same,TGI,A549 NSCLC,28.8 µM
same,TGI,HOP-92 NSCLC,33.2 µM
same,TGI,K-562 leukemia,43.3 µM
same,TGI,DU-145 prostate,69.2 µM
same,TGI,OVCAR-8 ovarian,> 100 µM
same,TGI,HT29 colon,24 µM
same,TGI,MCF7 breast,23.4 µM
same,TGI,786-0 renal,32 µM
same,TGI,MALME-3M melanoma,30.4 µM
same,TGI,U251 CNS,39.1 µM
same,TGI,OVCAR-5 ovarian,45.7 µM
same,TGI,MOLT-4 leukemia,24.3 µM
same,TGI,MDA-N,> 100 µM
same,TGI,SK-MEL-28 melanoma,35.3 µM
same,TGI,PC-3 prostate,77.2 µM
same,TGI,OVCAR-3 ovarian,61.2 µM
same,TGI,ACHN renal,35.3 µM
same,TGI,EKVX NSCLC,55.5 µM
same,TGI,SR leukemia,25 µM
same,TGI,CCRF-CEM leukemia,30.6 µM
same,TGI,COLO 205 colon,25.3 µM
same,TGI,RXF 393 renal,17.5 µM
same,TGI,NCI-H23 lung,63.3 µM
same,TGI,SW-620 colon,73.9 µM
same,TGI,BT-549 breast,58.1 µM
same,TGI,RPMI-8226 leukemia,34 µM
same,TGI,SNB-19 CNS,> 100 µM
same,TGI,UACC-62 melanoma,23.8 µM
same,TGI,SF-539 CNS,72.6 µM
same,TGI,M14 melanoma,36.6 µM
same,TGI,HL-60(TB) leukemia,36 µM
same,TGI,HCT-116 colon,26.5 µM
same,TGI,NCI-H226 lung,35.6 µM
same,TGI,HOP-62 NSCLC,22.5 µM
same,TGI,SK-OV-3 ovarian,78.3 µM
same,TGI,SF-268 CNS,> 100 µM
same,TGI,SF-295 CNS,30.4 µM
same,TGI,T-47D breast,38.6 µM
same,TGI,UO-31 renal,29.8 µM
same,TGI,OVCAR-4 ovarian,> 100 µM
same,TGI,MDA-MB-231 breast,70.4 µM
same,TGI,A498 renal,19.5 µM
same,TGI,UACC-257 melanoma,28.6 µM
same,TGI,NCI-H460 lung,35.3 µM
same,TGI,SN12C renal,> 100 µM
same,TGI,SK-MEL-5 melanoma,25.3 µM
same,TGI,HCT-15 colon,34.1 µM
same,TGI,TK-10 renal,32.5 µM
same,TGI,SK-MEL-2 melanoma,38.3 µM
same,TGI,MDA-MB-435,> 100 µM
same,TGI,LOX IMVI melanoma,27.5 µM
O=c1[nH]c2cc([N+](=O)[O-])ccc2nc1/C=C(\O)c1ccc(Cl)cc1,TGI,HS 578T breast,44.8 µM
same,TGI,NCI/ADR-RES ovarian,28.4 µM
same,TGI,SNB-75 CNS,55 µM
same,TGI,IGROV1 ovarian,26.6 µM
same,TGI,CAKI-1 renal,33.1 µM
same,TGI,A549 NSCLC,22.6 µM
same,TGI,HOP-92 NSCLC,36.6 µM
same,TGI,K-562 leukemia,> 100 µM
same,TGI,DU-145 prostate,23 µM
same,TGI,OVCAR-8 ovarian,21.5 µM
same,TGI,HT29 colon,32.7 µM
same,TGI,MCF7 breast,26.2 µM
same,TGI,786-0 renal,14.4 µM
same,TGI,MALME-3M melanoma,84.9 µM
same,TGI,U251 CNS,19.8 µM
same,TGI,OVCAR-5 ovarian,46 µM
same,TGI,MOLT-4 leukemia,46.2 µM
same,TGI,MDA-N,78.7 µM
same,TGI,SK-MEL-28 melanoma,22.9 µM
same,TGI,PC-3 prostate,32.5 µM
same,TGI,OVCAR-3 ovarian,38.6 µM
same,TGI,ACHN renal,31.4 µM
same,TGI,EKVX NSCLC,35.5 µM
same,TGI,SR leukemia,38.9 µM
same,TGI,CCRF-CEM leukemia,33.8 µM
same,TGI,COLO 205 colon,78.5 µM
same,TGI,RXF 393 renal,11.9 µM
same,TGI,NCI-H23 lung,29.4 µM
same,TGI,SW-620 colon,28.9 µM
same,TGI,BT-549 breast,19.1 µM
same,TGI,RPMI-8226 leukemia,65.2 µM
same,TGI,SNB-19 CNS,24 µM
same,TGI,UACC-62 melanoma,30.3 µM
same,TGI,SF-539 CNS,23.1 µM
same,TGI,HCC-2998 colon,72.3 µM
same,TGI,M14 melanoma,28.4 µM
same,TGI,HL-60(TB) leukemia,44.1 µM
same,TGI,HCT-116 colon,11.8 µM
same,TGI,NCI-H226 lung,40.6 µM
same,TGI,SK-OV-3 ovarian,43.4 µM
same,TGI,SF-268 CNS,53.8 µM
same,TGI,SF-295 CNS,27.4 µM
same,TGI,T-47D breast,30.8 µM
same,TGI,UO-31 renal,86.2 µM
same,TGI,OVCAR-4 ovarian,41.1 µM
same,TGI,MDA-MB-231 breast,24.7 µM
same,TGI,A498 renal,39.6 µM
same,TGI,UACC-257 melanoma,60.5 µM
same,TGI,NCI-H460 lung,24 µM
same,TGI,SK-MEL-5 melanoma,51.2 µM
same,TGI,HCT-15 colon,28.4 µM
same,TGI,TK-10 renal,16.5 µM
same,TGI,SK-MEL-2 melanoma,36.4 µM
same,TGI,MDA-MB-435,45.2 µM
same,TGI,LOX IMVI melanoma,25.4 µM
same,TGI,KM12 colon,40 µM
